Data as given in the OligoGym collection.
HELM strings list units from the 5' end as sugar, base in round brackets, then linkage (d deoxyribose, r ribose, m 2'-O-methyl, p phosphodiester). Strings are as the collection lists them; they lack the last nucleoside at the 3' end of the tested compound. [moe] = 2'-O-(2-methoxyethyl) (MOE); [sp] = phosphorothioate linkage; [m5C] = 5-methylcytosine

Each substance was assayed against PRNP (assay: mouse, dose not given). Details: ASO.

| Substance | 3 h FOB score [score 0-7] |
| --- | --- |
| RNA1{[moe](A)[sp].[moe](A)p.[moe](A)p.[moe]([m5C])p.[moe](G)[sp].d(T)[sp].d([m5C])[sp].d([m5C])[sp].d(A)[sp].d(T)[sp].d(T)[sp].d(T)[sp].d(T)[sp].d([m5C])[sp].d(T)[sp].[moe](G)p.[moe](T)p.[moe](G)[sp].[moe]([m5C])}$$$$ (last 3' nucleoside missing) | 0 |
| RNA1{[moe](A)[sp].[moe](A)p.[moe](G)p.[moe](G)p.[moe](T)[sp].d(T)[sp].d([m5C])[sp].d(G)[sp].d([m5C])[sp].d([m5C])[sp].d(A)[sp].d(T)[sp].d(A)[sp].d(A)[sp].d(T)[sp].[moe](G)p.[moe](A)p.[moe]([m5C])[sp].[moe](T)}$$$$ (last 3' nucleoside missing) | 5.25 |
| RNA1{[moe](A)[sp].[moe](A)p.[moe](G)p.[moe]([m5C])p.[moe]([m5C])[sp].d(T)[sp].d(T)[sp].d(T)[sp].d([m5C])[sp].d(A)[sp].d(T)[sp].d(A)[sp].d(T)[sp].d(A)[sp].d(T)[sp].[moe](G)p.[moe](T)p.[moe](T)[sp].[moe](A)}$$$$ (last 3' nucleoside missing) | 0 |
| RNA1{[moe](A)[sp].[moe](A)p.[moe](T)p.[moe](G)p.[moe](A)[sp].d([m5C])[sp].d(T)[sp].d([m5C])[sp].d(A)[sp].d(T)[sp].d([m5C])[sp].d(A)[sp].d(T)[sp].d(T)[sp].d(T)[sp].[moe](T)p.[moe](G)p.[moe]([m5C])[sp].[moe]([m5C])}$$$$ (last 3' nucleoside missing) | 0 |
| RNA1{[moe](A)[sp].[moe](A)p.[moe](T)p.[moe](T)p.[moe](T)[sp].d([m5C])[sp].d(T)[sp].d(T)[sp].d(T)[sp].d(T)[sp].d(T)[sp].d([m5C])[sp].d([m5C])[sp].d(A)[sp].d([m5C])[sp].[moe](T)p.[moe](T)p.[moe]([m5C])[sp].[moe](A)}$$$$ (last 3' nucleoside missing) | 0 |
| RNA1{[moe](A)[sp].[moe](A)p.[moe](T)p.[moe]([m5C])p.[moe](A)[sp].d(T)[sp].d(A)[sp].d(T)[sp].d(T)[sp].d(T)[sp].d([m5C])[sp].d(T)[sp].d(G)[sp].d(T)[sp].d([m5C])[sp].[moe](A)p.[moe](T)p.[moe]([m5C])[sp].[moe](T)}$$$$ (last 3' nucleoside missing) | 5 |
| RNA1{[moe](A)[sp].[moe](A)p.[moe](T)p.[moe]([m5C])p.[moe](A)[sp].d(T)[sp].d(T)[sp].d([m5C])[sp].d(T)[sp].d(G)[sp].d(G)[sp].d(T)[sp].d(T)[sp].d(T)[sp].d([m5C])[sp].[moe]([m5C])p.[moe](A)p.[moe](G)[sp].[moe](G)}$$$$ (last 3' nucleoside missing) | 0.5 |
| RNA1{[moe](A)[sp].[moe](A)p.[moe]([m5C])p.[moe](A)p.[moe](T)[sp].d(T)[sp].d(T)[sp].d(G)[sp].d(A)[sp].d(T)[sp].d(T)[sp].d(T)[sp].d([m5C])[sp].d(A)[sp].d(A)[sp].[moe](G)p.[moe](T)p.[moe]([m5C])[sp].[moe]([m5C])}$$$$ (last 3' nucleoside missing) | 2.5 |
| RNA1{[moe](A)[sp].[moe](A)p.[moe]([m5C])p.[moe](G)p.[moe](T)[sp].d([m5C])[sp].d([m5C])[sp].d(A)[sp].d(T)[sp].d(T)[sp].d(T)[sp].d(T)[sp].d([m5C])[sp].d(T)[sp].d(G)[sp].[moe](T)p.[moe](G)p.[moe]([m5C])[sp].[moe](T)}$$$$ (last 3' nucleoside missing) | 0 |
| RNA1{[moe](A)[sp].[moe](G)p.[moe](A)p.[moe](G)p.[moe]([m5C])[sp].d(A)[sp].d(A)[sp].d(T)[sp].d(A)[sp].d(T)[sp].d(A)[sp].d(T)[sp].d(T)[sp].d([m5C])[sp].d(A)[sp].[moe]([m5C])p.[moe]([m5C])p.[moe](A)[sp].[moe](A)}$$$$ (last 3' nucleoside missing) | 0 |
| RNA1{[moe](A)[sp].[moe](G)p.[moe](G)p.[moe](G)p.[moe]([m5C])[sp].d(A)[sp].d(T)[sp].d(T)[sp].d(A)[sp].d(G)[sp].d(T)[sp].d(A)[sp].d(T)[sp].d(A)[sp].d([m5C])[sp].[moe](T)p.[moe](G)p.[moe](A)[sp].[moe](G)}$$$$ (last 3' nucleoside missing) | 2.75 |
| RNA1{[moe](A)[sp].[moe](G)p.[moe](T)p.[moe](A)p.[moe](T)[sp].d([m5C])[sp].d(A)[sp].d(T)[sp].d(G)[sp].d(T)[sp].d(G)[sp].d(G)[sp].d([m5C])[sp].d([m5C])[sp].d(T)[sp].[moe]([m5C])p.[moe]([m5C])p.[moe](T)[sp].[moe](A)}$$$$ (last 3' nucleoside missing) | 5.75 |
| RNA1{[moe](A)[sp].[moe](G)p.[moe](T)p.[moe](T)p.[moe]([m5C])[sp].d(T)[sp].d(T)[sp].d(T)[sp].d(T)[sp].d([m5C])[sp].d(T)[sp].d(T)[sp].d(T)[sp].d(G)[sp].d([m5C])[sp].[moe](A)p.[moe]([m5C])p.[moe](A)[sp].[moe]([m5C])}$$$$ (last 3' nucleoside missing) | 5.25 |
| RNA1{[moe](A)[sp].[moe](G)p.[moe]([m5C])p.[moe](A)p.[moe]([m5C])[sp].d(A)[sp].d(G)[sp].d(G)[sp].d([m5C])[sp].d(T)[sp].d(A)[sp].d(T)[sp].d([m5C])[sp].d(T)[sp].d(T)[sp].[moe](T)p.[moe]([m5C])p.[moe](T)[sp].[moe](A)}$$$$ (last 3' nucleoside missing) | 5 |
| RNA1{[moe](A)[sp].[moe](G)p.[moe]([m5C])p.[moe](T)p.[moe]([m5C])[sp].d(T)[sp].d(A)[sp].d(T)[sp].d(T)[sp].d(A)[sp].d(A)[sp].d(T)[sp].d(A)[sp].d(G)[sp].d(G)[sp].[moe](T)p.[moe](T)p.[moe](A)[sp].[moe](G)}$$$$ (last 3' nucleoside missing) | 5.5 |
| RNA1{[moe](A)[sp].[moe](G)p.[moe]([m5C])p.[moe](T)p.[moe]([m5C])[sp].d(T)[sp].d([m5C])[sp].d([m5C])[sp].d(T)[sp].d(G)[sp].d(T)[sp].d(A)[sp].d(T)[sp].d(G)[sp].d(T)[sp].[moe]([m5C])p.[moe](A)p.[moe](A)[sp].[moe](A)}$$$$ (last 3' nucleoside missing) | 4.75 |
| RNA1{[moe](A)[sp].[moe](T)p.[moe](G)p.[moe](G)p.[moe](T)[sp].d(G)[sp].d([m5C])[sp].d(T)[sp].d(T)[sp].d(T)[sp].d([m5C])[sp].d(A)[sp].d([m5C])[sp].d(A)[sp].d(A)[sp].[moe]([m5C])p.[moe](T)p.[moe](G)[sp].[moe]([m5C])}$$$$ (last 3' nucleoside missing) | 1 |
| RNA1{[moe](A)[sp].[moe](T)p.[moe](G)p.[moe](G)p.[moe]([m5C])[sp].d(A)[sp].d([m5C])[sp].d(T)[sp].d(T)[sp].d(T)[sp].d([m5C])[sp].d(T)[sp].d(T)[sp].d(T)[sp].d(T)[sp].[moe](T)p.[moe](A)p.[moe](T)[sp].[moe](T)}$$$$ (last 3' nucleoside missing) | 1 |
